Here are results for five compounds from US9063046B1, “Hand-held device with reagents and method for detection and diagnostics” (priority 2012, dated 2015).

For one experiment, the system named is spores of B. atrophaeus. The class given is cell-based, Bacillus atrophaeus.
Another experiment deals with Pixuna virus (PIXV). In kind it is cell-based. The settings on record: screening, FIG. 1; guanidium thiocyanate at 3.5 M.
Another experiment concerns VACV. Further details: species or system Vaccinia virus.
A further experiment has as its system B. atrophaeus endospores. The arrangement: species or system Bacillus atrophaeus.
The subject of another experiment is P. aeruginosa. Further details: species or system Pseudomonas aeruginosa.

Consider `N#CS.N=C(N)N` [Guanidium thiocyanate, guanidium thiocyanate], for which the “killing / inactivating effect on spores” value in the experiment on spores of B. atrophaeus was “little inactivating effect”. Moreover, the “inactivating effect on PIXV” value with Pixuna virus (PIXV) is “little inactivating effect”. Take `O=CCCCC=O` [glutaraldehyde]: the “killing / inactivating effect on spores” value with spores of B. atrophaeus is “did not completely kill all of the spores”. As to `OO` [hydrogen peroxide], the “killing / inactivating effect on spores” value with spores of B. atrophaeus is “did not completely kill all of the spores”. As for `CC(=O)OO` [peracetic acid], the “ELISA sensitivity for VACV, of untreated controls” value with VACV is approximately 50%. cupric ascorbate: in the experiment on B. atrophaeus endospores, the “ELISA sensitivity for spores, of untreated controls” value is 80-90%. The “ELISA sensitivity for vegetative bacteria, of untreated controls” value in the experiment on P. aeruginosa is reported as 80-90%.
